Key:
[1] = target: T1, JAK1 (Homo sapiens, UniProt P23458); assay: Biochemical JAK1 kinase assay (LanthaScreen); settings: for Ki: read-out: JAK 1 (pKi) (converted)
T1 construct: GST; purchased Life Technologies
Procedure: (§1) A panel of four LanthaScreen JAK biochemical assays (JAK1, 2, 3 and Tyk2) were carried in a common kinase reaction buffer (50 mM HEPES, pH 7.5, 0.01% Brij-35, 10 mM MgCl2, and 1 mM EGTA). Recombinant GST-tagged JAK enzymes and a GFP-tagged STAT1 peptide substrate were obtained from Life Technologies.
(§2) Serially or discretely diluted compounds were pre-incubated with each of the four JAK enzymes and the substrate in white 384-well microplates (Corning) at ambient temperature for 1 h. ATP was subsequently added to initiate the kinase reactions in 10 μL total volume, with 1% DMSO. […] Kinase reactions were allowed to proceed for 1 hour at ambient temperature before a 10 μL preparation of EDTA (10 mM final concentration) and Tb-anti-pSTAT1 (pTyr701) antibody (Life Technologies, 2 nM final concentration) in TR-FRET dilution buffer (Life Technologies) was added. The plates were allowed to incubate at ambient temperature for 1 h before being read on the EnVision reader (Perkin Elmer). Emission ratio signals (520 nm/495 nm) were recorded and utilized to calculate the percent inhibition values based on DMSO and background controls.
(§3) For dose-response analysis, percent inhibition data were plotted vs. compound concentrations, and IC50 values were determined from a 4-parameter robust fit model with the Prism software (GraphPad Software). Results were expressed as pIC50 (negative logarithm of IC50) and subsequently converted to pKi (negative logarithm of dissociation constant, Ki) using the Cheng-Prusoff equation.

[2] = tested on: IL-2 stimulated pSTAT5 in Tall-1 T cells; assay: Cellular JAK3 potency assay: inhibition of IL-2 stimulated pSTAT5 in Tall-1 T cells; format: cell-based, human; settings: for Tall-1 (pIC50): IL-2 stimulated pSTAT5 in Tall-1 T cells; for IC50: Homo sapiens, TALL-1, IL-2 stimulated pSTAT5 in Tall-1 T cells, read-out: Tall-1 (pIC50) (converted)
Procedure: The potency of test compounds for inhibition of interleukin-2 (IL-2) stimulated STAT5 phosphorylation was measured in the Tall-1 human T cell line (DSMZ) using AlphaLisa. Because IL-2 signals through JAK3, this assay provides a measure of JAK3 cellular potency.
Compounds were serially diluted in DMSO and dispensed acoustically to empty wells. Assay media (phenol red-free DMEM (Life Technologies) supplemented with 10% FBS (ATCC)) was dispensed (4 μL/well) and plates shaken at 900 rpm for 10 mins. Cells were seeded at 45,000 cells/well in assay media (4 μL/well), and incubated at 37° C., 5% CO2 for 1 hour, followed by the addition of IL-2 (R&D Systems; final concentration 300 ng/ml) in pre-warmed assay media (4 μL) for 30 minutes. After cytokine stimulation, cells were lysed with 6 ul of 3× AlphaLisa Lysis Buffer (PerkinElmer) containing 1× PhosStop and Complete tablets (Roche). The lysate was shaken at 900 rpm for 10 minutes at room temperature (RT). Phosphorylated STAT5 was measured via the pSTAT5 AlphaLisa kit (PerkinElmer). Freshly prepared acceptor bead mixture was dispensed onto lysate (5 μL) under green filtered <100 lux light. Plates were shaken at 900 rpm for 2 mins, briefly spun down, and incubated for 2 hrs at RT in the dark. Donor beads were dispensed (5 μL) under green filtered <100 lux light. Plates were shaken at 900 rpm for 2 minutes, briefly spun down, and incubated overnight at RT in the dark.
To determine the inhibitory potency of test compounds in response to IL-2, the average emission intensity of beads bound to pSTAT5 was measured in a human T cell line. IC50 values were determined from analysis of the inhibition curves of signal intensity versus compound concentration. Data are expressed as pIC50 (negative decadic logarithm IC50) values (mean±standard deviation).

[3] = target: T2, JAK3 (Homo sapiens, UniProt P52333); assay: Biochemical JAK3 kinase assay (LanthaScreen); parameters: GST; purchased Life Technologies; settings: for JAK3 (pKi)-JAK1 (pKi): selectivity: difference of pKi JAK3 and pKi JAK1; for Ki: read-out: JAK 3 (pKi) (converted)
T2 sequence (P52333 1-1124): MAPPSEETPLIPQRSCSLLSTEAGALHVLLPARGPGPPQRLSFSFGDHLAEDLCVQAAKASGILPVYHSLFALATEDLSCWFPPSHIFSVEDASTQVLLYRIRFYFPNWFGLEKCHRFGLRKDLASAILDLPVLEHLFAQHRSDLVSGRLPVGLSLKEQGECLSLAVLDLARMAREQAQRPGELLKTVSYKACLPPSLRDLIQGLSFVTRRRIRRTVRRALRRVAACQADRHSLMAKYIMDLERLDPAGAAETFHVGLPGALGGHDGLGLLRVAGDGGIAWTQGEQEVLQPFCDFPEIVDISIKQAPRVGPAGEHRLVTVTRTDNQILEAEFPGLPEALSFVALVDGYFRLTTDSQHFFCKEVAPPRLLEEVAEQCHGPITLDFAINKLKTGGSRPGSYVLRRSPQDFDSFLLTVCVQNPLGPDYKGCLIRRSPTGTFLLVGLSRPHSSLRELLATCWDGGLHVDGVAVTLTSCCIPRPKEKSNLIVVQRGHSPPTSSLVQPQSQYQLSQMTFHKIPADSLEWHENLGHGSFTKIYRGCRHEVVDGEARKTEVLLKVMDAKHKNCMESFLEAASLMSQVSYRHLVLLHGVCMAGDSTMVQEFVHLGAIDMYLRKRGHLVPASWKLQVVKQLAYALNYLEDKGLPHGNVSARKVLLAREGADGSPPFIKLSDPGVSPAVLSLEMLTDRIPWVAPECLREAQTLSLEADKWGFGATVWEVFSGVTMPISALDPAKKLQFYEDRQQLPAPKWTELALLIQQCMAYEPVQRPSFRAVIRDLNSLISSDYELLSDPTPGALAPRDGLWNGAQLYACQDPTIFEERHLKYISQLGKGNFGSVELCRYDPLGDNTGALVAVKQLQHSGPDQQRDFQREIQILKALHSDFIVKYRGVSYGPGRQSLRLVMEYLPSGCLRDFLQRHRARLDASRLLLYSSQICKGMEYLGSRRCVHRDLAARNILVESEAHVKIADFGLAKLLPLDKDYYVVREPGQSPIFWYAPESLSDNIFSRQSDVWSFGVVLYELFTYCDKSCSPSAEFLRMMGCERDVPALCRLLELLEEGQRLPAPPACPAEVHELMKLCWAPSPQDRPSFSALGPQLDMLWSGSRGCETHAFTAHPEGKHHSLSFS
Procedure: as §1, §2, §3

T1 sequence (P23458 whole entry): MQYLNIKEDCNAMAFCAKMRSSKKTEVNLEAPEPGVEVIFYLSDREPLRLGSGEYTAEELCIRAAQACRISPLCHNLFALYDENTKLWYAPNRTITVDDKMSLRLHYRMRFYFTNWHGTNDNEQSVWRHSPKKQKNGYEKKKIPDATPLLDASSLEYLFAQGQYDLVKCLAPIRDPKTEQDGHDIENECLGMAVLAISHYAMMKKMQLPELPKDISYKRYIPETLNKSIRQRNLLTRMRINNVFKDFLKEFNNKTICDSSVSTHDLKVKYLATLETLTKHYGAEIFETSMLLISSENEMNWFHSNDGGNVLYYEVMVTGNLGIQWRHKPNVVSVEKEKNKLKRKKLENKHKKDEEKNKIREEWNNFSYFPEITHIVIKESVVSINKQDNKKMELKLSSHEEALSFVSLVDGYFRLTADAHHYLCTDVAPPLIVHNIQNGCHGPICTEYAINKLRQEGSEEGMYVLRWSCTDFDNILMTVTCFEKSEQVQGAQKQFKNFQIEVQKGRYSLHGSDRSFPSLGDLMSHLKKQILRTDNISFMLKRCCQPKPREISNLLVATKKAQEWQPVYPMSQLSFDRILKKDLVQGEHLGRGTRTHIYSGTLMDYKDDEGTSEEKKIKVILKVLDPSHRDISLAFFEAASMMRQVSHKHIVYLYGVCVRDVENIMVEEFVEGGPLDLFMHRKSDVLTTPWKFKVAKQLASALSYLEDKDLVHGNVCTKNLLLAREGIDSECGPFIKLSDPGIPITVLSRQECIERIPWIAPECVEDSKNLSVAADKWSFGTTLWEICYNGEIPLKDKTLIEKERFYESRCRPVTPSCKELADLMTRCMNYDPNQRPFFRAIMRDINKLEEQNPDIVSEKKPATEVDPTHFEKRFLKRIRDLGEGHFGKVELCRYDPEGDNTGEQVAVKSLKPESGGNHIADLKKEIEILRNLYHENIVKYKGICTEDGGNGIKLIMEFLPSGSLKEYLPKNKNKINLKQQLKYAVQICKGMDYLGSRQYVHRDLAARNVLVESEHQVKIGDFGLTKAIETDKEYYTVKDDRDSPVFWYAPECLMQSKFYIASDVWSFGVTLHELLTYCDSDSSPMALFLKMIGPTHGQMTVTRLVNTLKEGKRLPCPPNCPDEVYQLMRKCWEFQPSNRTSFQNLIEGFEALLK

Compound	JAK 1 (pKi) [1]	Tall-1 (pIC50) [2]	JAK 3 (pKi) [3]	JAK3 (pKi)-JAK1 (pKi) [3]	Ki [1] [nM]	IC50 [2] [nM]	Ki [3] [nM]
CN(C)C/C=C/C(=O)N1CC[C@H](COc2cc(-c3ccc(O)c(F)c3)cc3[nH]ncc23)C1 [Compound 2-4]	E (a pKi value of 7 or below (Ki of 100 nM or above))	C (a pIC50 value between 6 and 6.7 (IC50 between 1 μM and 200 nM))	B (a pKi value between 9 and 10 (Ki between 1 nM and 0.1 nM))	B (a value of 2.3 to 3)			
C=CC(=O)N1CC[C@H](COc2cc(-c3ccc(O)cc3)nc3[nH]ncc23)C1 [Compound 2-6]	E (a pKi value of 7 or below (Ki of 100 nM or above))	C (a pIC50 value between 6 and 6.7 (IC50 between 1 μM and 200 nM))	A (a pKi value≥10 (Ki≤0.1 nM))	A (a value of 3 or above)			
C=CC(=O)N1CC[C@H](COc2nc(-c3ccc(O)cc3)nc3[nH]ncc23)C1 [Compound 2-7]	E (a pKi value of 7 or below (Ki of 100 nM or above))	B (a pIC50 value between 6.7 (included) and 7.5 (IC50 between 200 nM and 32 nM))	B (a pKi value between 9 and 10 (Ki between 1 nM and 0.1 nM))	A (a value of 3 or above)			
CN(C)C/C=C/C(=O)N1CC[C@H](COc2nc(-c3ccc(O)c(Cl)c3)cc3[nH]ncc23)C1 [Compound 2-9]	E (a pKi value of 7 or below (Ki of 100 nM or above))	B (a pIC50 value between 6.7 (included) and 7.5 (IC50 between 200 nM and 32 nM))	B (a pKi value between 9 and 10 (Ki between 1 nM and 0.1 nM))	B (a value of 2.3 to 3)			
CN(C)C/C=C/C(=O)N1CC[C@H](COc2nc(-c3ccc(O)c(F)c3)cc3[nH]ncc23)C1 [Compound 2-13]	E (a pKi value of 7 or below (Ki of 100 nM or above))	C (a pIC50 value between 6 and 6.7 (IC50 between 1 μM and 200 nM))	B (a pKi value between 9 and 10 (Ki between 1 nM and 0.1 nM))	B (a value of 2.3 to 3)			
C=CC(=O)N1CC[C@H](COc2nc(-c3ccc(O)c(Cl)c3)cc3[nH]ncc23)C1 [Compound 2-14]	E (a pKi value of 7 or below (Ki of 100 nM or above))	A (a pIC50 value≥7.5 (IC50≤32 nM))	A (a pKi value≥10 (Ki≤0.1 nM))	A (a value of 3 or above)			
C=CC(=O)N1CC[C@H](COc2cc(-c3ccc(O)c(Cl)c3)nc3[nH]ncc23)C1 [Compound 2-16]	E (a pKi value of 7 or below (Ki of 100 nM or above))	C (a pIC50 value between 6 and 6.7 (IC50 between 1 μM and 200 nM))	B (a pKi value between 9 and 10 (Ki between 1 nM and 0.1 nM))	A (a value of 3 or above)			
C=CC(=O)N1CC(F)(COc2cc(-c3ccc(O)cc3)cc3[nH]ncc23)C1 [Compound 3-6]				A (a value of 3 or above)	10 to 100	< 31.6	< 0.1
CN(C)C/C=C/C(=O)N1CC(C)(COc2cc(-c3ccc(O)c(Cl)c3)cc3[nH]ncc23)C1 [Compound 3-9]				B (a value of 2.3 to 3)	> 100	31.6 to 200	0.1 to 1
C=CC(=O)N1CC(C)(COc2cc(-c3ccc(O)c(Cl)c3)cc3[nH]ncc23)C1 [Compound 3-10]	E (a pKi value of 7 or below (Ki of 100 nM or above))	A (a pIC50 value≥7.5 (IC50≤32 nM))	B (a pKi value between 9 and 10 (Ki between 1 nM and 0.1 nM))	A (a value of 3 or above)			
C=CC(=O)N1CC(C)(COc2cc(-c3ccc(O)c(F)c3)cc3[nH]ncc23)C1 [Compound 3-12]				B (a value of 2.3 to 3)	> 100	31.6 to 200	0.1 to 1
C=CC(=O)N1CC(CC)(COc2cc(-c3ccc(O)cc3)cc3[nH]ncc23)C1 [Compound 3-14]	E (a pKi value of 7 or below (Ki of 100 nM or above))	B (a pIC50 value between 6.7 (included) and 7.5 (IC50 between 200 nM and 32 nM))	B (a pKi value between 9 and 10 (Ki between 1 nM and 0.1 nM))	A (a value of 3 or above)			
C=CC(=O)N1CC(CC)(COc2cc(-c3ccc(O)c(Cl)c3)cc3[nH]ncc23)C1 [Compound 3-16]	E (a pKi value of 7 or below (Ki of 100 nM or above))	B (a pIC50 value between 6.7 (included) and 7.5 (IC50 between 200 nM and 32 nM))	A (a pKi value≥10 (Ki≤0.1 nM))	A (a value of 3 or above)			
C=CC(=O)N1CC(CC)(COc2cc(-c3ccc(O)c(F)c3)cc3[nH]ncc23)C1 [Compound 3-18]	E (a pKi value of 7 or below (Ki of 100 nM or above))	B (a pIC50 value between 6.7 (included) and 7.5 (IC50 between 200 nM and 32 nM))	A (a pKi value≥10 (Ki≤0.1 nM))	A (a value of 3 or above)			
C=CC(=O)N1CC(C(C)(C)Oc2cc(-c3ccc(O)cc3)cc3[nH]ncc23)C1 [Compound 3-25]	E (a pKi value of 7 or below (Ki of 100 nM or above))	B (a pIC50 value between 6.7 (included) and 7.5 (IC50 between 200 nM and 32 nM))	C (a pKi value between 8 and 9 (Ki between 10 nM and 1 nM))	B (a value of 2.3 to 3)			
C=CC(=O)N1CC(C(C)(C)Oc2cc(-c3ccc(O)c(Cl)c3)cc3[nH]ncc23)C1 [Compound 3-26]	E (a pKi value of 7 or below (Ki of 100 nM or above))	B (a pIC50 value between 6.7 (included) and 7.5 (IC50 between 200 nM and 32 nM))	B (a pKi value between 9 and 10 (Ki between 1 nM and 0.1 nM))	A (a value of 3 or above)			
